# PubChem BioAssay (NCI)
#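 A five-concentration, 48-hour dose response in 96-well plates underlies each endpoint, interpolated linearly between surrounding concentrations. Definition used: TGI = concentration required for complete inhibition of growth.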
# Key:
# Test in all cases: NCI-60 cell line screen, 48 h
# CCRF-CEM leukemia = test system: CCRF-CEM leukemia
# SK-MEL-2 melanoma = test system: SK-MEL-2 melanoma
# DMS 273 small cell lung = test system: DMS 273 small cell lung
# M19-MEL melanoma = test system: M19-MEL melanoma
# RXF 393 renal = test system: RXF 393 renal
# SNB-19 CNS = test system: SNB-19 CNS
# M14 melanoma = test system: M14 melanoma
# NCI-H522 lung = test system: NCI-H522 lung
# HCT-15 colon = test system: HCT-15 colon
# COLO 205 colon = test system: COLO 205 colon
# SK-OV-3 ovarian = test system: SK-OV-3 ovarian
# KM12 colon = test system: KM12 colon
# SN12C renal = test system: SN12C renal
# OVCAR-3 ovarian = test system: OVCAR-3 ovarian
# XF 498 CNS = test system: XF 498 CNS
# DLD-1 colon = test system: DLD-1 colon
# SK-MEL-5 melanoma = test system: SK-MEL-5 melanoma
# HOP-62 NSCLC = test system: HOP-62 NSCLC
# LOX IMVI melanoma = test system: LOX IMVI melanoma
# A549 NSCLC = test system: A549 NSCLC
# HOP-92 NSCLC = test system: HOP-92 NSCLC
# SF-268 CNS = test system: SF-268 CNS
# HL-60(TB) leukemia = test system: HL-60(TB) leukemia
# HCC-2998 colon = test system: HCC-2998 colon
# DMS 114 small cell lung = test system: DMS 114 small cell lung
# OVCAR-5 ovarian = test system: OVCAR-5 ovarian
# HT29 colon = test system: HT29 colon
# ACHN renal = test system: ACHN renal
# SK-MEL-28 melanoma = test system: SK-MEL-28 melanoma
# UACC-62 melanoma = test system: UACC-62 melanoma
# EKVX NSCLC = test system: EKVX NSCLC
# OVCAR-4 ovarian = test system: OVCAR-4 ovarian
# RPMI-8226 leukemia = test system: RPMI-8226 leukemia
# TK-10 renal = test system: TK-10 renal
# MALME-3M melanoma = test system: MALME-3M melanoma
# OVCAR-8 ovarian = test system: OVCAR-8 ovarian
# CAKI-1 renal = test system: CAKI-1 renal
# SNB-75 CNS = test system: SNB-75 CNS
# K-562 leukemia = test system: K-562 leukemia
# NCI-H23 lung = test system: NCI-H23 lung
# IGROV1 ovarian = test system: IGROV1 ovarian
# UO-31 renal = test system: UO-31 renal
# MOLT-4 leukemia = test system: MOLT-4 leukemia
# UACC-257 melanoma = test system: UACC-257 melanoma
# LXFL 529 NSCLC = test system: LXFL 529 NSCLC
# KM20L2 colon = test system: KM20L2 colon
# NCI-H460 lung = test system: NCI-H460 lung
# SW-620 colon = test system: SW-620 colon
# 786-0 renal = test system: 786-0 renal
# NCI-H226 lung = test system: NCI-H226 lung
# A498 renal = test system: A498 renal
# SNB-78 CNS = test system: SNB-78 CNS
# SR leukemia = test system: SR leukemia
# SF-539 CNS = test system: SF-539 CNS
# SF-295 CNS = test system: SF-295 CNS
# HCT-116 colon = test system: HCT-116 colon
# U251 CNS = test system: U251 CNS
smiles,measurement,setting,value
C1=CC(=NN=P(c2ccccc2)(c2ccccc2)c2ccccc2)C=C1,TGI,CCRF-CEM leukemia,> 100 µM
same,TGI,SK-MEL-2 melanoma,> 100 µM
same,TGI,DMS 273 small cell lung,> 100 µM
same,TGI,M19-MEL melanoma,> 100 µM
same,TGI,RXF 393 renal,> 100 µM
same,TGI,SNB-19 CNS,> 100 µM
same,TGI,M14 melanoma,> 100 µM
same,TGI,NCI-H522 lung,> 100 µM
same,TGI,HCT-15 colon,> 100 µM
same,TGI,COLO 205 colon,> 100 µM
same,TGI,SK-OV-3 ovarian,> 100 µM
same,TGI,KM12 colon,> 100 µM
same,TGI,SN12C renal,> 100 µM
same,TGI,OVCAR-3 ovarian,> 100 µM
same,TGI,XF 498 CNS,> 100 µM
same,TGI,DLD-1 colon,> 100 µM
same,TGI,SK-MEL-5 melanoma,> 100 µM
same,TGI,HOP-62 NSCLC,> 100 µM
same,TGI,LOX IMVI melanoma,> 100 µM
same,TGI,A549 NSCLC,> 100 µM
same,TGI,HOP-92 NSCLC,> 100 µM
same,TGI,SF-268 CNS,> 100 µM
same,TGI,HL-60(TB) leukemia,> 100 µM
same,TGI,HCC-2998 colon,> 100 µM
same,TGI,DMS 114 small cell lung,> 100 µM
same,TGI,OVCAR-5 ovarian,> 100 µM
same,TGI,HT29 colon,> 100 µM
same,TGI,ACHN renal,> 100 µM
same,TGI,SK-MEL-28 melanoma,> 100 µM
same,TGI,UACC-62 melanoma,> 100 µM
same,TGI,EKVX NSCLC,> 100 µM
same,TGI,OVCAR-4 ovarian,> 100 µM
same,TGI,RPMI-8226 leukemia,> 100 µM
same,TGI,TK-10 renal,> 100 µM
same,TGI,MALME-3M melanoma,> 100 µM
same,TGI,OVCAR-8 ovarian,> 100 µM
same,TGI,CAKI-1 renal,> 100 µM
same,TGI,SNB-75 CNS,> 100 µM
same,TGI,K-562 leukemia,> 100 µM
same,TGI,NCI-H23 lung,> 100 µM
same,TGI,IGROV1 ovarian,> 100 µM
same,TGI,UO-31 renal,> 100 µM
same,TGI,MOLT-4 leukemia,> 100 µM
same,TGI,UACC-257 melanoma,> 100 µM
same,TGI,LXFL 529 NSCLC,> 100 µM
same,TGI,KM20L2 colon,> 100 µM
same,TGI,NCI-H460 lung,> 100 µM
same,TGI,SW-620 colon,> 100 µM
same,TGI,786-0 renal,> 100 µM
COc1ccc(/C=C(\C2=NC(=O)CS2)c2nc3ccccc3[nH]2)cc1,TGI,CCRF-CEM leukemia,> 100 µM
same,TGI,SK-MEL-2 melanoma,62.9 µM
same,TGI,DMS 273 small cell lung,> 100 µM
same,TGI,M19-MEL melanoma,> 100 µM
same,TGI,RXF 393 renal,6.81 µM
same,TGI,SNB-19 CNS,> 100 µM
same,TGI,NCI-H226 lung,28.6 µM
same,TGI,A498 renal,> 100 µM
same,TGI,M14 melanoma,> 100 µM
same,TGI,NCI-H522 lung,49.7 µM
same,TGI,HCT-15 colon,> 100 µM
same,TGI,SNB-78 CNS,> 100 µM
same,TGI,COLO 205 colon,> 100 µM
same,TGI,SK-OV-3 ovarian,60 µM
same,TGI,KM12 colon,> 100 µM
same,TGI,SN12C renal,> 100 µM
same,TGI,OVCAR-3 ovarian,52.3 µM
same,TGI,XF 498 CNS,81.5 µM
same,TGI,DLD-1 colon,> 100 µM
same,TGI,SK-MEL-5 melanoma,> 100 µM
same,TGI,HOP-62 NSCLC,> 100 µM
same,TGI,A549 NSCLC,> 100 µM
same,TGI,HOP-92 NSCLC,> 100 µM
same,TGI,SF-268 CNS,> 100 µM
same,TGI,HL-60(TB) leukemia,> 100 µM
same,TGI,HCC-2998 colon,49.7 µM
same,TGI,DMS 114 small cell lung,> 100 µM
same,TGI,OVCAR-5 ovarian,> 100 µM
same,TGI,HT29 colon,> 100 µM
same,TGI,SR leukemia,> 100 µM
same,TGI,ACHN renal,> 100 µM
same,TGI,SK-MEL-28 melanoma,> 100 µM
same,TGI,UACC-62 melanoma,> 100 µM
same,TGI,EKVX NSCLC,> 100 µM
same,TGI,OVCAR-4 ovarian,> 100 µM
same,TGI,SF-539 CNS,41.9 µM
same,TGI,RPMI-8226 leukemia,> 100 µM
same,TGI,TK-10 renal,> 100 µM
same,TGI,MALME-3M melanoma,> 100 µM
same,TGI,SF-295 CNS,> 100 µM
same,TGI,HCT-116 colon,> 100 µM
same,TGI,OVCAR-8 ovarian,> 100 µM
same,TGI,CAKI-1 renal,> 100 µM
same,TGI,SNB-75 CNS,71.6 µM
same,TGI,K-562 leukemia,> 100 µM
same,TGI,NCI-H23 lung,> 100 µM
same,TGI,IGROV1 ovarian,> 100 µM
same,TGI,UO-31 renal,> 100 µM
same,TGI,U251 CNS,> 100 µM
same,TGI,MOLT-4 leukemia,> 100 µM
same,TGI,UACC-257 melanoma,> 100 µM
same,TGI,LXFL 529 NSCLC,> 100 µM
same,TGI,KM20L2 colon,> 100 µM
same,TGI,NCI-H460 lung,> 100 µM
same,TGI,SW-620 colon,> 100 µM
